Assays:
[1] = system: markers of oxidative stress (SOD1, SOD2, GSH, GSSG, H2O2, HNE-His adducts, DNA fragmentation); assay: Markers of oxidative stress in ischemic cortex following I/R; format: in vivo, rat
Procedure: To examine the effect of the compound of Formula (Ia) on various markers of oxidative stress throughout the 5.5 h of reperfusion, injections of the optimal dose of the compound of Formula (Ia) (0.1 mg/kg; 1 ml/kg iv; n=5 per group at each time point) or vehicle (25% EtOH; 1 ml/kg iv; n=5 per group at each time point) were made 30 min prior to the onset of MCAO. The sutures were left in place for 30 min. Brains were removed, and cortical tissue was collected at the end of the 30 min of occlusion (no reperfusion), or following 30 min, 1, 2, 4, or 5.5 h of reperfusion. At the end of each time point, animals were perfused transcardially with 200 ml of 100 mM PBS (pH 7.4), and the brains were removed. The ipsilateral cerebral cortex was isolated, and an 8-mm diameter biopsy punch was used to obtain tissue from the ischemic core. The tissue was weighed and homogenized (40% wt/vol) in ice-cold PBS. Aliquots of whole homogenate were frozen at −80° C. immediately for measurements of hydrogen peroxide (H2O2). The remaining sample was diluted 1:2 with ice-cold PBS and centrifuged at 12,000 g for 15 min at 4° C. Aliquots of the supernatant were stored at −80° C. until assayed for protein levels, superoxide dismutase (SOD1 and SOD2) activity, 4-hydroxynonenal-histodine (HNE-His) adducts (OxiSelect Kits, Cell Biolabs, San Diego, Calif.), reduced glutathione (GSH), oxidized glutathione (GSSG; Cayman Chemical, Ann Arbor Mich.), and cytoplasmic enrichment of DNA fragments (apoptosis) (Roche Diagnostics, Montreal, QC, Canada) using selective assay kits according to manufacturer's specifications.

[2] = system: dog liver microsomes (DLM); assay: Metabolic stability using dog liver microsomes; format: in vitro ADME
Excerpt: Table 9 summarizes the experimental conditions used in the studies of the metabolic stability of the compound of Formula (Ia) using dog liver microsomes and human liver microsomes.

With `COc1cc(C(C)=O)ccc1OC(=O)CCCCC1CCSS1` (centres unmarked) [compound of Formula (Ia)] the “mitochondrial SOD2 activity levels vs vehicle” value ([1]; 0.1 mg/kg iv 30 min prior to MCAO, 4-h time point) was “significantly higher”, the “oxidized form of GSH (GSSG) vs vehicle” value ([1]; 0.1 mg/kg iv 30 min prior to MCAO, after 5.5 h of reperfusion) was “significantly greater” and the “total amount of GSH (oxidized and reduced forms) vs vehicle” value ([1]; 0.1 mg/kg iv 30 min prior to MCAO, any time point) was “No significant differences”. For the same molecule, the “cytoplasmic SOD1 activity levels vs vehicle” value ([1]; 0.1 mg/kg iv 30 min prior to MCAO, any time point during 5.5 h reperfusion) was “no significant differences”, the “level of hydrogen peroxide vs vehicle” value ([1]; 0.1 mg/kg iv 30 min prior to MCAO, any time point over 5.5 h reperfusion) was “not significantly greater” and the “DNA fragmentation (apoptotic cell death)” value ([1]; 0.1 mg/kg iv 30 min prior to MCAO, each time point) was “No significant changes”. The “HNE-His adduct levels vs vehicle” value ([1]; 0.1 mg/kg iv 30 min prior to occlusion, following 2 h of reperfusion) was “significantly attenuated”, the “% Metabolism in 30 minutes” value ([2]; DLM control (without NADPH)) was 0% and the “CLintr (mL/min/g liver)” value ([2]; DLM control (without NADPH)) was over 67 mL/min/g liver. The “% Metabolism in 30 minutes” value ([2]; DLM reaction (with NADPH)) was 0% and the “CLintr (mL/min/g liver)” value ([2]; DLM reaction (with NADPH)) was over 67 mL/min/g liver.
